From PubChem BioAssay (NCI)
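1) Cells in 96-well plates. 2) Compound, 48 h, 5 concentrations. 3) Linear interpolation between surrounding doses. 4) Unreached endpoint = highest concentration. The concentration for 50% growth inhibition is given as GI50. TGI denotes the concentration required for complete inhibition of growth.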

Experiments:
Test in all cases: DTP human tumour cell line panel, 48 h
MDA-MB-231 breast = tested on: MDA-MB-231 breast
HCT-15 colon = tested on: HCT-15 colon
BT-549 breast = tested on: BT-549 breast
SK-OV-3 ovarian = tested on: SK-OV-3 ovarian
SK-MEL-28 melanoma = tested on: SK-MEL-28 melanoma
CCRF-CEM leukemia = tested on: CCRF-CEM leukemia
HL-60(TB) leukemia = tested on: HL-60(TB) leukemia
HS 578T breast = tested on: HS 578T breast
U251 CNS = tested on: U251 CNS
SF-268 CNS = tested on: SF-268 CNS

SMILES	GI50 (MDA-MB-231 breast)	TGI (MDA-MB-231 breast)	GI50 (HCT-15 colon)	TGI (HCT-15 colon)	GI50 (BT-549 breast)	TGI (BT-549 breast)	GI50 (SK-OV-3 ovarian)	TGI (SK-OV-3 ovarian)	GI50 (SK-MEL-28 melanoma)	TGI (SK-MEL-28 melanoma)	GI50 (CCRF-CEM leukemia)	TGI (CCRF-CEM leukemia)	GI50 (HL-60(TB) leukemia)	TGI (HL-60(TB) leukemia)	GI50 (HS 578T breast)	TGI (HS 578T breast)	GI50 (U251 CNS)	TGI (U251 CNS)	GI50 (SF-268 CNS)	TGI (SF-268 CNS)
CN1CCN(C2=C(Cl)C(=O)c3ccccc3C2=O)CC1	1.84 µM	3.99 µM	1.77 µM	3.41 µM	1.97 µM	4.75 µM	9.11 µM	22.4 µM	1.75 µM	3.18 µM	2.45 µM	7.96 µM	2.39 µM	5.84 µM	1.84 µM	4.84 µM	1.72 µM	3.28 µM	2.82 µM	10.9 µM
N[C@H]1CCC[C@@H](O)C1O (some centres undefined)		> 100 µM		> 100 µM		> 100 µM		> 100 µM		> 100 µM		> 100 µM		> 100 µM		> 100 µM		> 100 µM		> 100 µM
O=C(c1ccc(Cl)cc1Cl)N1CCN(C(=O)c2ccc(Cl)cc2Cl)C1=S	19.1 µM	38.7 µM	22.1 µM	57.3 µM	21.1 µM	54.2 µM	22.8 µM	55.4 µM	18.4 µM	39.4 µM	19.5 µM	38.5 µM	16.6 µM	34.1 µM	41 µM	> 100 µM	17.8 µM	35.3 µM	24.5 µM	56.1 µM
COc1ccc(C2=Nn3c(nnc3-c3ccc(F)c(Cl)c3)SC2)cc1	29.5 µM	> 100 µM	> 100 µM	> 100 µM	> 100 µM	> 100 µM	> 100 µM	> 100 µM	> 100 µM	> 100 µM	57.8 µM	> 100 µM	> 100 µM	> 100 µM	> 100 µM	> 100 µM	> 100 µM	> 100 µM	> 100 µM	> 100 µM
COc1cc(C[C@H]2COC(=O)[C@]2(O)Cc2ccc(OCc3ccccc3)c(OC)c2)ccc1OCc1ccccc1	> 100 µM	> 100 µM	19 µM	> 100 µM	28.1 µM	> 100 µM	> 100 µM	> 100 µM	> 100 µM	> 100 µM	> 100 µM	> 100 µM	28 µM	> 100 µM	42.9 µM	> 100 µM	23.9 µM	> 100 µM	73.7 µM	> 100 µM
O=CNC(Cc1cnc[nH]1)C(=O)O (centres undefined)		> 100 µM		> 100 µM		> 100 µM		> 100 µM		> 100 µM		> 100 µM		> 100 µM		> 100 µM		> 100 µM		> 100 µM
Cc1cccc(CNc2c3ccccc3nc3ccccc23)c1	1.65 µM	4.07 µM	1.83 µM	4.59 µM	2.34 µM	6.32 µM	2.61 µM	10.5 µM	1.89 µM	4.07 µM	2.77 µM	15 µM	2.26 µM	5.28 µM	2.2 µM	6.6 µM	1.96 µM	5.54 µM	3.06 µM	11.8 µM
COc1ccc(-c2cn(C)c3c2-n2cccc2C3=O)cc1O	3.65 µM	29.8 µM	1.86 µM	9.15 µM	3.99 µM	23.2 µM	5.86 µM	94.7 µM	11.4 µM	33.8 µM	3.66 µM	25.4 µM	3.48 µM	> 100 µM	0.611 µM	3.9 µM	8.61 µM	29.8 µM	11.4 µM	50.5 µM
COC(=O)NC1(NC(=O)OC)NC(=O)c2ccccc2N1		> 100 µM		> 100 µM		> 100 µM		> 100 µM		> 100 µM		> 100 µM		> 100 µM		> 100 µM				> 100 µM
CN(C)S(=O)(=O)c1cccc(C(=O)Nc2nc(-c3ccc(F)c(F)c3)cs2)c1	20.6 µM	> 100 µM	> 40.4 µM	> 100 µM	3.88 µM	> 27.4 µM	35.7 µM	> 100 µM	18.8 µM	> 100 µM	10.7 µM	> 100 µM	6.08 µM	> 100 µM	14.2 µM	91 µM	11.5 µM	> 74 µM	13.9 µM	> 100 µM
CCN(Cc1cc(Cl)cc(C)c1O)Cc1c(O)ccc2ccccc12		35.4 µM		30.5 µM		27.4 µM		29.8 µM		34.8 µM		42.5 µM		34 µM		36.5 µM		31.7 µM		34.8 µM
CCCC(=O)Oc1ccc(/C(=C(\C)c2ccc(Cl)cc2)c2ccc(OCCN(CC)CC)cc2)cc1	2.42 µM	5.13 µM	1.68 µM	3.73 µM	4.85 µM	18.9 µM	4.85 µM	17.5 µM	1.91 µM	3.91 µM	4.18 µM	15.5 µM	2.23 µM	5.52 µM	2.68 µM	9.33 µM	1.95 µM	4.06 µM	3.81 µM	19 µM
O=NNc1ccc(-c2ccccc2)cn1		> 78.1 µM		56.1 µM		> 100 µM		> 78.8 µM		> 80.1 µM		> 100 µM		51.9 µM		> 58.9 µM		> 62.5 µM		29.2 µM
O=C1c2ccccc2C(=O)c2c1ccc1conc21		1.42 µM		5.66 µM		3.68 µM		13.3 µM		7.94 µM		71.1 µM		4.16 µM		38.6 µM		3.14 µM		6.8 µM
O=C1OC(c2ccc([N+](=O)[O-])cc2)=N/C1=C\c1ccc(Cl)cc1		> 100 µM		> 100 µM		> 100 µM		> 100 µM		> 100 µM		> 100 µM		> 100 µM		> 100 µM		> 100 µM		> 100 µM
